Assay results reported in US20220022457A1, “Microbicide Ammonium-Imidazolium Oligomers and Their Anti-Fungal Compositions” (AGENCY FOR SCIENCE, TECHNOLOGY AND RESEARCH, priority 2018, published 2022).
≈ marks a conversion by molar mass, not a printed value. Where “and” joins values, the source holds several entries; their conditions need not be identical. Equal values may be shown once.

Key:
[1] = Critical micelle concentration; type: physicochemical
C. albicans = experiment: Checkerboard assay of oligomers with triazoles (FIC); type: cell-based; conditions: Candida albicans; for FIC with Fluconazole: calculated from lowest concentration inhibiting at least 50% growth
Experimental: […]. […] A row and a column in which a serial dilution of each agent was present alone were also prepared for MIC test. Then each solution in the well plate was inoculated with 100 μL of logarithmically grown 10^6 cells/ml C. albicans cells in the 96-well plate. The plate also contained a column with C. albicans only as control (100% cell growth). The cells were incubated at room temperature for 24 h with constant shaking, after which cell growth (i.e. the O.D. at 600 nm) was monitored with a microplate reader (TECAN) Synergy between fluconazole and oligomers was determined by calculating the fractional inhibitory concentration index ([…] was calculated as follows: FIC=(MIColigomer A in combination/MIColigomer A alone)+(MICazole B in combination/MICazole B alone). […] The interaction of selected oligomers with other triazoles such as itraconazole and voriconazole was also investigated using the checkerboard dilution method. For comparison, the interaction of the selected oligomer with a non-triazole antifungal agent […] was also investigated.

[2] = system: mouse red blood cells (RBCs); experiment: Hemolysis study; type: cell-based; conditions: oligomer concentration giving 10% hemolysis, 1 h, 37° C.
Experimental: After 1 h incubation at 37° C., the mixture was centrifuged at 2000 rpm for 5 min. Aliquots (100 μl) of the supernatant were transferred to a 96-well plate. Hemolytic activity was determined as a function of hemoglobin release by measuring absorbance of the supernatant at 576 nm using a microplate reader. A control solution that contained only PBS was used as a reference for 0% hemolysis. Absorbance of red blood cells lysed with 0.5% Triton-X was taken as 100% hemolysis. The oligomer concentration which results in 10% hemolysis is indicated as HC10 in Table 1. The data were expressed as mean and S.D. of four replicates. % Hemolysis=[OD576 nm (polymer)−OD576 nm (PBS)]/[OD576 nm (Triton-X)−OD576 nm (PBS)]×100%

[3] = system: Candida albicans (ATCC 10231, fungus); experiment: Minimum inhibitory concentration, microdilution assay; type: cell-based; conditions: for MIC C.A. / MIC: Candida albicans ~10^6 CFU/ml, YMB, room temperature, no visible growth; for MIC50 C.A. (value in brackets): Candida albicans, concentration inhibiting 50% fungal growth; for MIC: ATCC10231
Experimental: Staphylococcus aureus (ATCC 6538, Gram-positive), Escherichia coli (ATCC 8739, Gram-negative), Pseudomonas aeruginosa (ATCC 9027, Gram-negative), and Candida albicans (ATCC 10231, fungus) were used as representative microorganisms to challenge the antimicrobial functions of the oligomers. All bacteria and fungus were frozen at -80° C., and were grown overnight at 37° C. in Mueller Hinton Broth (MHB, BD Singapore) prior to experiments. Fungus was grown overnight at 22° C. in Yeast Mold Broth (YMB, BD Singapore). […] […] […] Medium solution containing microbial cells alone were used as control (100% microbial growth). The assay was performed in four replicates and the experiments were repeated at least two times.

[4] = system: Escherichia coli (ATCC 8739, Gram-negative); experiment: as above; type: cell-based; conditions: lowest concentration with no visible growth; for MIC E.C.: 24 h
Experimental: (§1) Staphylococcus aureus (ATCC 6538, Gram-positive), Escherichia coli (ATCC 8739, Gram-negative), Pseudomonas aeruginosa (ATCC 9027, Gram-negative), and Candida albicans (ATCC 10231, fungus) were used as representative microorganisms to challenge the antimicrobial functions of the oligomers. All bacteria and fungus were frozen at -80° C., and were grown overnight at 37° C. in Mueller Hinton Broth (MHB, BD Singapore) prior to experiments. Fungus was grown overnight at 22° C. in Yeast Mold Broth (YMB, BD Singapore). […] The plates were incubated at 37° C. for 24 h with constant shaking speed at 300 rpm. […] Medium solution containing microbial cells alone were used as control (100% microbial growth). The assay was performed in four replicates and the experiments were repeated at least two times.

[5] = system: Pseudomonas aeruginosa (ATCC 9027, Gram-negative); experiment: as above; type: cell-based; conditions: lowest concentration with no visible growth; for MIC P.A.: 24 h
Experimental: as §1

[6] = system: Staphylococcus aureus (ATCC 6538, Gram-positive); experiment: as above; type: cell-based; conditions: lowest concentration with no visible growth; for MIC S.A.: 24 h
Experimental: as §1

[7] = triazole in combination with IDPBX8
[8] = triazole in combination with IDPPX8

Row | Compound | CMC [1] | FIC with Fluconazole (C. albicans) | HC10 [2] | MIC C.A. [3] | MIC50 C.A. (value in brackets) [3] | MIC E.C. [4] | MIC P.A. [5] | MIC S.A. [6] | MIC [3] | MIC ([4]; ATCC8739, 24 h) | MIC ([5]; ATCC9027, 24 h) | MIC ([6]; ATCC6538, 24 h) | Alone MIC50 component A (C. albicans; oligomer alone) | Combined MIC50 component A (C. albicans; oligomer in combination with Fluconazole) | FIC (C. albicans; oligomer with Fluconazole (Table 2)) | Combined MIC50 component B (C. albicans; [7]) | Combined MIC50 component B (C. albicans; [8]) | Alone MIC50 component B (C. albicans; triazole alone)
1 | CCCCCCCC[N+]12CC[N+](Cc3ccccc3C[N+]34CC[N+](CCCCCCCC)(CC3)CC4)(CC1)CC2.[Br-].[Br-].[Br-].[Br-] [DDO8] | 3038 µg/mL | 0.38 | >2000 µg/mL | 125 µg/mL | (16) μg/ml | 8 µg/mL | 62 µg/mL | 4 µg/mL |  |  |  |  |  |  |  |  |  | 
2 | CCCCCCCC[N+]12CC[N+](Cc3ccc(C[N+]45CC[N+](CCCCCCCC)(CC4)CC5)cc3)(CC1)CC2.[Br-].[Br-].[Br-].[Br-] [DDP8] | 1896 µg/mL | 0.19 | >2000 µg/mL | 500 µg/mL | (31) μg/ml | 16 µg/mL | 2000 µg/mL | 16 µg/mL |  |  |  |  |  |  |  |  |  | 
3 | CCCCCCCC[n+]1ccn(Cc2ccc(C[n+]3ccn(Cc4ccc(C[n+]5ccn(Cc6ccccc6Cn6cc[n+](Cc7ccc(Cn8cc[n+](Cc9ccc(Cn%10cc[n+](CCCCCCCC)c%10)cc9)c8)cc7)c6)c5)cc4)c3)cc2)c1 [IBN-C8, reference compound] | 226 µg/mL | 2.00 | >2000 µg/mL |  |  |  |  |  | 16 µg/mL | 8 µg/mL | 16 µg/mL | 4 µg/mL |  |  |  |  |  | 
4 | CCCCCCCC[n+]1ccn(CC=CC[N+]23CC[N+](CC=CCn4cc[n+](CCCCCCCC)c4)(CC2)CC3)c1.[Br-].[Br-].[Br-].[Br-] [IDIB8] | 1829 µg/mL | 0.25 | >2000 µg/mL | >500 µg/mL | (32) μg/ml | 16 µg/mL | 500 µg/mL | 8 µg/mL |  |  |  |  |  |  |  |  |  | 
5 | CCCCCCCC[n+]1ccn(Cc2ccccc2C[N+]23CC[N+](Cc4ccccc4Cn4cc[n+](CCCCCCCC)c4)(CC2)CC3)c1.[Br-].[Br-].[Br-].[Br-] [IDIO8] | 1667 µg/mL | 0.25 | >2000 µg/mL | 62 µg/mL | (32) μg/ml | 16 µg/mL | 250 µg/mL | 8 µg/mL |  |  |  |  |  |  |  |  |  | 
6 | CCCCCCCC[n+]1ccn(Cc2ccc(C[N+]34CC[N+](Cc5ccc(Cn6cc[n+](CCCCCCCC)c6)cc5)(CC3)CC4)cc2)c1.[Br-].[Br-].[Cl-].[Cl-] [IDIP8] | 985 µg/mL | 0.25 | >2000 µg/mL | 125 µg/mL | (8) μg/ml | 16 µg/mL | 1000 µg/mL | 2 µg/mL |  |  |  |  |  |  |  |  |  | 
7 | C(=C\C[N+]12CC[N+](Cc3ccc(C[n+]4ccn(Cc5ccccc5)c4)cc3)(CC1)CC2)/C[N+]12CC[N+](Cc3ccc(C[n+]4ccn(Cc5ccccc5)c4)cc3)(CC1)CC2 [IDPBXb] | 1732 µg/mL |  | >2000 µg/mL | >1000 µg/mL | (1000) μg/ml | 62 µg/mL | >1000 µg/mL | 125 µg/mL |  |  |  |  |  |  |  |  |  | 
8 | c1ccc(Cn2cc[n+](Cc3ccc(C[N+]45CC[N+](Cc6ccc(C[N+]78CC[N+](Cc9ccc(C[n+]%10ccn(Cc%11ccccc%11)c%10)cc9)(CC7)CC8)cc6)(CC4)CC5)cc3)c2)cc1 [IDPPXb] | 1860 µg/mL | 0.5 |  | 2000 µg/mL | (500) μg/ml | 62 µg/mL | >1000 µg/mL | 125 µg/mL |  |  |  |  |  |  |  |  |  | 
9 | CCCCCCCC[n+]1ccn(Cc2ccc(Cn3cc[n+](C/C=C/C[N+]45CC[N+](C/C=C/C[n+]6ccn(Cc7ccc(Cn8cc[n+](CCCCCCCC)c8)cc7)c6)(CC4)CC5)c3)cc2)c1.[Br-].[Br-].[Br-].[Br-].[Br-].[Br-] [IIDPBX8] | 291 µg/mL | 0.31 | >2000 µg/mL | 62 µg/mL | (8) μg/ml | 62 µg/mL | 250 µg/mL | 4 µg/mL |  |  |  |  |  |  |  |  |  | 
10 | CCCCCCCC[n+]1ccn(Cc2ccc(Cn3cc[n+](Cc4ccc(C[N+]56CC[N+](C/C=C/C[N+]78CC[N+](Cc9ccc(C[n+]%10ccn(Cc%11ccc(Cn%12cc[n+](CCCCCCCC)c%12)cc%11)c%10)cc9)(CC7)CC8)(CC5)CC6)cc4)c3)cc2)c1.[Br-].[Br-].[Br-].[Br-].[Br-].[Br-].[Br-].[Br-] [IIDPPBX8] | 727 µg/mL | 1.00 | >2000 µg/mL | 31 µg/mL | (2-8) μg/ml | 31 µg/mL | 125 µg/mL | 8 µg/mL |  |  |  |  | 2 µg/mL | 1 µg/mL | 1.0 |  |  | 
11 | C[C@@H](c1ncncc1F)[C@](O)(Cn1cncn1)c1ccc(F)cc1F [Voriconazole, voriconazole, reference compound] |  |  |  |  |  |  |  |  | 0.025 to 0.1 µg/mL (≈ 0.0716 to 0.286 µM) |  |  |  |  |  |  | 0.006 µg/mL | 0.003 µg/mL | 
12 | itraconazole [reference compound] |  |  |  | 0.016 to 0.03 µg/mL |  |  |  |  |  |  |  |  |  |  |  | 0.015 µg/mL | 0.004 µg/mL | 0.016 µg/mL and 0.03 µg/mL
